Patent US10149644B2, “Curcumin derivatives for amyloid-β plaque imaging” (The General Hospital Corporation, priority 2008, dated 2018)

Assays:
[1] = Log P measurement (octanol/water); type: physicochemical
Method: Log p measurement was performed according to the reported procedure {35}. CRANAD-2 (0.125 mM) in Octanol 2.0 mL was subjected to partition with octanol-saturated water 2.0 mL. The resulting mixture was stirred vigorously for 5 min., and centrifuged at 2,000 rpm for 5 min. The octanol layer was separated from water layer, and its fluorescence spectrum was recorded (excited at 590 nm). The above water layer was partitioned with water-saturated octanol 2.0 mL, and the octanol layer was separated after 5 min. vigorous stirring and 5 min. centrifuge at 2,000 rpm, and its spectrum was recorded. The log P value was calculated by the fluorescence intensity ratio at 690 nm for the above two octanol extractions.
In order for the probe to cross blood brain barrier, its lipophilicity (log P) should be within 2-5 range.

Tg2576 mice = test: In vivo NIR imaging
Method: In vivo NIR imaging was performed using Kodak Imaging station 2000MM. For fluorescence excitation, three laser diodes at 660 nm with a total power of 10 mW/cm2 have been used yielding a uniform illumination of the whole animal. The fluorescent light emitted from the sample (mouse) was detected by a charge-coupled device (CCD) camera (Hamamatsu ORCA) equipped with a focusing lens system (macro lens 60 mm, 1:2.8, Nikon). The image matrix comprised of 532×256 pixels. A bandpass filter was used for the selection of the detection wavelength (700 nm). Integration time default was selected at 30 s. Images were acquired Kodak 1DTM 3.6.3 Network software and analysed using the Kodak™ 1D Analysis software.
Mice (n=3 for Tg2576 and n=3 for the littermates) were shaved before background imaging, and were i.v. injected CRANAD-2 (5.0 mg/kg) for each mouse. Fluorescence signals from the brain were recorded at pre-injection, and 10 min., 30 min., 60 min., 120 min., 240 min., and 480 min. after intravenous injection of the probe. To evaluate our imaging results, an ROI was drawn around the brain region, and the data were analyzed by the following modified equation (1) {24}, where Irel(t) is the relative fluorescence intensity at the certain time point, I(t) is the measured ROI value at this time point, I(pre) is the pre-injection background, and I(30) is the reading at 30 min. Since pre-injection background varied in different mice, this equation allowed us to correct for it. Fluorescence intensity decay curves were then generated based on this equation. Irel(t)=(I(t)−I(pre))/(I(30)−I(pre)) (1)
For in vivo specific binding (SP), the calculation was based on equation (2), where Irel(tg) is the relative fluorescence intensity of Tg2576, and Irel(contr) is the relative fluorescence intensity of the control littermates. P values were calculated by Student test. SP(t)={Irel(tg)−Irel(contr)}/Irel(tg) (2) Ex Vivo Histological Correlation.
Transgenic 11-month and 19-month old Tg2576 mice were used to validate the feasibility of CRANAD-2 as NIR imaging probe. Aged-matched wild type littermates served as controls. Images were recorded before and after i.v. injection of CRANAD-2 at 5.0 mg/Kg dosage. […] Furthermore, the signals from 19-month old Tg2576 (FIG. 11D) were remarkably brighter at all time points.
Semi-quantitative analysis of these images was conducted with selected region of interested (ROI), and two sets of data were generated. By normalizing the fluorescence intensity to that of 30 min. after the injection of the probe, we were able to create four well-fit decay curves with non-linear regression for two binding site model (Prism 3.0) for both 11- and 19-months old groups (R2=0.96, 0.97, 0.97, and 0.94 for 11-month control, tg2576, and 19-month control and tg2576 respectively) (FIG. 9A). By normalizing the signal to background fluorescence intensity (Fpre), and using the ratio between fluorescence intensity at time points studied ((F(t)) and Fpre) we could compare the signal change in Tg2576 group to that of the control group (FIGS. 9B,C)(e.g. F(t)/Fpre). Details of these methods are described in Materials and Methods contained herein.

Aβ plaques = test: AD tissue staining of APP-PS1 brain sections; conditions: 25 micron sections, 12-month old APP-PS1 mice
Description: The inventors conducted tissue staining with 25 micron brain sections from 12-month old APP-PS1 mice by all the compounds listed in FIG. 12.

senile plaques = test: Ex vivo histological correlation; type: in vivo, mice; conditions: 19-month old transgenic mice, 10 mg/kg i.v.
Method: 19 month-old mouse was injected CRANAD-2 (10.0 mg/kg), and was sacrified after perfusion with 4% formaldehyde. The brain was taken and embedded in OCT. For histology, the brain was sliced into 25μ slices, and co-stained with thioflavin S as described above. To obtain ex vivo confirmation of the probe binding, mice at different ages were i.v injected with 10 mg/kg of CRANAD-2 probe, perfused and scarified at 1 h after injection.

In the case of CN(C)c1ccc(/C=C/C2=CC(/C=C/c3ccc(N(C)C)cc3)=[O+][B-](F)(F)O2)cc1 [CRANAD-2], the logP [1] is reported as 3, the “Declining of brain fluorescence signals, Tg2576 vs control” value (Tg2576 mice; 5.0 mg/kg i.v., 11- and 19-month old) is reported as “considerably slower” and the “Difference in F(t)/Fpre, Tg2576 vs control” value (“Difference in F(t)/Fpre” for short) (Tg2576 mice; 11-month old, 120 min) is reported as 0.52. The “Difference in relative fluorescence decay Irel(t), Tg2576 vs control” value (Tg2576 mice; 11-month old, 120 min, 5.0 mg/kg i.v.) was 23%, the “Difference in F(t)/Fpre” value (Tg2576 mice; 11-month old, 240 min) was 0.45 and the “Difference in relative fluorescence decay Irel(t), Tg2576 vs control” value (Tg2576 mice; 11-month old, 240 min, 5.0 mg/kg i.v.) was 16%. For the same compound, the “Difference in F(t)/Fpre” value (Tg2576 mice; 19-month old, 120 min) was 0.43, the “Difference in relative fluorescence decay Irel(t), Tg2576 vs control” value (Tg2576 mice; 19-month old, 120 min, 5.0 mg/kg i.v.) was 20% and the “Difference in F(t)/Fpre” value (Tg2576 mice; 19-month old, 240 min) was 0.65. The “Difference in relative fluorescence decay Irel(t), Tg2576 vs control” value (Tg2576 mice; 19-month old, 240 min, 5.0 mg/kg i.v.) was 30%, the “Fluorescence intensity, transgenic vs control groups” value (Tg2576 mice; 30, 60, 120 and 240 min after injection) was “higher than that of the control groups” and the “Slower decay rate, 19-month vs 11-month old Tg2576” value (Tg2576 mice; 120 min) was 11%. For the same compound, the “"Smart" amplification factor in vivo (ratio>1.0 = smart)” value (Tg2576 mice; 120 min and 240 min, 11- and 19-month groups) was ““smart” probe in vivo”, the “Slower decay rate, 19-month vs 11-month old Tg2576” value (Tg2576 mice; 240 min) was 13% and the “Staining of plaques in brain sections” value (Aβ plaques) was “good staining”. For the same compound, the “Staining of plaques in brain sections” value (Aβ plaques; listed as CRANAD2) was “stained the plaques brightly” and the “Labelling of senile plaques ex vivo after i.v. injection” value (senile plaques) was “senile plaques were observed”.
